Patent US20010039287A1, “AROMATIC SULFONE HYDROXAMIC ACID METALLOPROTEASE INHIBITOR” (priority 1997, published 2001)
Structures can show the parent of a compound that is named as a salt. Where two headings read alike, the source gives them in different places.

Columns and labels:
recombinant human MMP-13 = recombinant human MMP-13 (Homo sapiens, UniProt P45452); experiment: biochemical
recombinant human MMP-1 = target: T1, recombinant human MMP-1 (Homo sapiens, UniProt P03956); experiment: biochemical
T1 construct: made in house; host or cells: transfected HT-1080 cells (provided by Dr. Harold Welgus, Washington University)
T1 sequence (P03956 100-469): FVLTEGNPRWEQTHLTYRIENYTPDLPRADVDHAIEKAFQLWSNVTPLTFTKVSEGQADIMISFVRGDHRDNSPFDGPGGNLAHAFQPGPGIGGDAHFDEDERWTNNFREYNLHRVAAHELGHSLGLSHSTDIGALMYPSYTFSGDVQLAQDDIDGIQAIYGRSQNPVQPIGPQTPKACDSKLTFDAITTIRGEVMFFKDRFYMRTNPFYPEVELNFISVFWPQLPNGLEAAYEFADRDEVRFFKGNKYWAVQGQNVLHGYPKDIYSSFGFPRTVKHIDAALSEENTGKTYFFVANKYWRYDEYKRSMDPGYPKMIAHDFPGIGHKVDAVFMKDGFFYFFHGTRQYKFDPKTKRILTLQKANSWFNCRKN

recombinant human MMP-2 = target: T2, recombinant human MMP-2 (Homo sapiens, UniProt P08253); experiment: biochemical
T2 sequence (P08253 110-660): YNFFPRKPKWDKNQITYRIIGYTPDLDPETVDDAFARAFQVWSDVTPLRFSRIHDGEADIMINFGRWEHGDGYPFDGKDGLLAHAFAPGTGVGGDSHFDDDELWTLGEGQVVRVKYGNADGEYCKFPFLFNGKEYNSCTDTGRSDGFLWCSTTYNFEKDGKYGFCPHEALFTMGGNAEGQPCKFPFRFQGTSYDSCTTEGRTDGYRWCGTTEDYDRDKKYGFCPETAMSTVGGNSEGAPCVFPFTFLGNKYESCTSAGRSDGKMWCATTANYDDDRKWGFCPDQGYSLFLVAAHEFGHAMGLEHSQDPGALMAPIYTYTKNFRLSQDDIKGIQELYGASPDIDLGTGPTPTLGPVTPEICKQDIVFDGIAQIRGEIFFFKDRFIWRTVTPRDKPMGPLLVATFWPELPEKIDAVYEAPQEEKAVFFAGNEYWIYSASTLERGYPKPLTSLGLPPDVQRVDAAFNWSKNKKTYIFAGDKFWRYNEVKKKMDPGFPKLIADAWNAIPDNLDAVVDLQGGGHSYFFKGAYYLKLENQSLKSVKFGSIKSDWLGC

[1] = parameters: AUC (0-∞): unit not given beside the values; conditions: for t½ Hour: Rat Intravenous 20 mpk
recombinant human MMP-9 = recombinant human MMP-9 (Homo sapiens, UniProt P14780); experiment: biochemical
Sequence of recombinant human MMP-9 (P14780 107-707 limits assumed): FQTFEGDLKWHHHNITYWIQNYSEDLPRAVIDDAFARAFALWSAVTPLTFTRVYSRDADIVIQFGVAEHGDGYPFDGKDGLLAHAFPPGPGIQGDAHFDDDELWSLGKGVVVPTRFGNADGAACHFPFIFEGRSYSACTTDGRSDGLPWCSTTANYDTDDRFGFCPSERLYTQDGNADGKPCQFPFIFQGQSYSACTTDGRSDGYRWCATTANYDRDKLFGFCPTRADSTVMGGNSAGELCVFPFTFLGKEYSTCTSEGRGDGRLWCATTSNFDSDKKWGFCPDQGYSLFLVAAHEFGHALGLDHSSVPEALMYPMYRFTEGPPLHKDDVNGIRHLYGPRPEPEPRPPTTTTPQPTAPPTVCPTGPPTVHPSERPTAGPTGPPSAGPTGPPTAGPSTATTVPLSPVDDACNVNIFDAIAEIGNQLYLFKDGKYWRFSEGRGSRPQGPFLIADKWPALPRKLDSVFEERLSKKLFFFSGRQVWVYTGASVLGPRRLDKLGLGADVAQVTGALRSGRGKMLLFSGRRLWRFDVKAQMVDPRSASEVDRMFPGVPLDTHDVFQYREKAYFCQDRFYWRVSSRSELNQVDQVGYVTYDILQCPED

[2] = Inhibition Table B, read-out: MMP-13 IC50
[3] = Inhibition Table B, read-out: MMP-2 IC50
[4] = Inhibition Table B, read-out: MMP-9 IC50
[5] = Inhibition Table B, read-out: MMP-1 IC50

| Compound | IC50 (recombinant human MMP-13; [2]) | IC50 (recombinant human MMP-2; [3]) | t½ Hour [1] | also measured |
| --- | --- | --- | --- | --- |
| CC(=O)N1CCC(C(=O)NO)(S(=O)(=O)c2ccc(Oc3ccccc3)cc2)CC1 [Example 12] | – | – | – | IC50 (recombinant human MMP-13): < 0.1 nM; IC50 (recombinant human MMP-1): 464 nM; IC50 (recombinant human MMP-2; MMP-2 IC50 (nM)): < 0.1 nM; AUC (0-∞) ([1]; rat, in vivo): 22.11; t1/2 ([1]; rat, in vivo): 0.86 h; Blood Level @ 3 min ([1]; rat, in vivo, iv, 20 mg/kg): 73.54 µg/mL |
| O=C(NO)C1(S(=O)(=O)c2ccc(Oc3ccccc3)cc2)CCN(C2CC2)CC1 [Example 17] | – | – | – | IC50 (recombinant human MMP-13): […]; IC50 (recombinant human MMP-1; Inhibition Table A, read-out: MMP-1 IC50): 400 nM; IC50 (recombinant human MMP-2; MMP-2 IC50 (nM)): 0.2 nM; IC50 (recombinant human MMP-9): […]; AUC (0-∞) ([1]; rat, in vivo): 37.10; Blood Level @ 3 min ([1]; rat, in vivo): 63.44 µg/mL; t1/2 ([1]; rat, in vivo): 0.74 h; BA ([1]; rat, in vivo, 20 mg/kg): 35.9%; BA % ([1]; rat, in vivo, 20 mg/kg): 35.9%; Blood Level @ 3 min ([1]; rat, in vivo, iv, 20 mg/kg): 63.44 µg/mL |
| Cl.O=C(NO)C1(S(=O)(=O)c2ccc(Sc3ccccc3)cc2)CCN(C2CC2)CC1 [Example 32, 1-cyclopropyl-N-hydroxy-4-[[4-(phenylthio)phenyl]sulfonyl]-4-piperidine Carboxamide, Monohydrochloride] | 0.2 nM | 0.1 nM | 1.03 h | IC50 (recombinant human MMP-1): > 10000 nM; IC50 (recombinant human MMP-9; [4]): 2.5 nM |
| C#CCN1CCC(C(=O)NO)(S(=O)(=O)c2ccc(Oc3ccc(C)c(C)c3)cc2)CC1.Cl [Example 43, 4-[[4-(3,4-Dimethylphenoxyl)phenyl]sulfonyl]-N-hydroxy-1-(2-propynyl)-4-piperidinecarboxamide, Monhydrochloride] | 0.8 nM | 0.4 nM | 0.82 h | IC50 (recombinant human MMP-1; [5]): 7000 nM |
| Cc1cc(Oc2ccc(S(=O)(=O)C3(C(=O)NO)CCNCC3)cc2)ccc1Cl.Cl [Example 79] | – | – | 1.82 h | – |
| C#CCN1CCC(C(=O)NO)(S(=O)(=O)c2ccc(Oc3ccc(Cl)c(C)c3)cc2)CC1.Cl [Example 81, 4-[[4-(4-chloro-3-methylphenoxy)phenyl]sulfonyl]-N-hydroxy-1-(2-propynyl)-4-piperidinecarboxamide, Monohydrochloride] | 0.3 nM | 0.1 nM | 0.76 h | IC50 (recombinant human MMP-1; [5]): 3300 nM |
| O=C(NO)C1(S(=O)(=O)c2ccc(Oc3ccccc3)cc2)CCOCC1 [Example 94, Tetrahydro-N-hydroxy-4-[(4-phenoxyphenyl)sulfonyl]-2H-pyran-4-carboxamide] | < 0.1 nM | < 0.1 nM | 1.71 h | – |
| Cl.O=C(NO)C1(S(=O)(=O)c2ccc(Oc3ccc(-n4ccnc4)cc3)cc2)CCOCC1 [Example 99, tetrahydro-N-hydroxy-4-[[4-[4-(1H-imidazol-1-yl)phenoxy]phenyl]-sulfonyl]-2H-pyran-4-carboxamide, Monohydrochloride] | 1 nM | 0.4 nM | 0.68 h | IC50 (recombinant human MMP-1; [5]): > 10000 nM |
| O=C(NO)C1(S(=O)(=O)c2ccc(Oc3ccc(Cl)cc3)cc2)CCOCC1 [Example 100, 4-[[4-(4-chlorophenoxy)-phenyl]sulfonyl]-tetrahydro-N-hydroxy-2H-pyran-4-carboxamide] | – | – | 1.50 h | – |
| O=C(NO)C1(S(=O)(=O)c2ccc(Oc3ccccc3)cc2)CC[S+]([O-])CC1 (stereo not drawn) [Example 111] | 1.3 nM | 0.5 nM | 0.65 h | IC50 (recombinant human MMP-1; [5]): 3700 nM |
| CC(=O)N1CCN(c2ccc(Oc3ccc(S(=O)(=O)C4(C(=O)NO)CCOCC4)cc3)cc2)CC1 [Example 123, 4-[[4-[4-(4-acetyl-1-piperazinyl)phenoxy]phenyl]sulfonyl]-tetrahydro-N-hydroxy-2H-pyran-4-carboxamide, Trifluoroacetic Acid Salt] | 1.8 nM | 1.8 nM | – | IC50 (recombinant human MMP-1; [5]): 3600 nM; IC50 (recombinant human MMP-9; [4]): 27.8 nM |
| O=C(NO)C1(S(=O)(=O)c2ccc(Oc3ccc(SC(F)(F)F)cc3)cc2)CCOCC1 [Example 382, Tetrahydro-N-hydroxy-4-[[4-[4-[(trifluoromethyl)thio]phenoxy]phenyl]-sulfonyl]-2H-pyran-4-carboxamide] | – | – | 1.71 h | – |
| O=C(NO)C1(S(=O)(=O)c2ccc(Oc3ccc(C(F)(F)F)cc3)cc2)CCN(CCN2CCOCC2)CC1 [Example 388, N-hydroxy-1-[2-(4-morpholinyl)-ethyl]-4-[[4-[4-(trifluoromethyl)phenoxy]-phenyl]sulfonyl]-4-piperidinecarboxamide, Dihydrochloride] | – | – | 0.94 h | – |
| O=C(NO)C1(S(=O)(=O)c2ccc(Oc3ccc(C(F)(F)F)cc3)cc2)CCN(Cc2cccnc2)CC1 [Example 390, N-hydroxy-1-(3-pyridinylmethyl)-4-[[4-[4-trifluoromethyl)phenoxy]phenyl]-sulfonyl]-4-piperidinecarboxamide, Dihydrochloride] | – | – | 1.50 h | – |
| O=C(NO)C1(S(=O)(=O)c2ccc(Oc3ccc(C(F)(F)F)cc3)cc2)CCN(Cc2ccccn2)CC1 [Example 391, N-hydroxy-1-(2-pyridinylmethyl)-4-[[4-[4-(trifluoromethyl)phenoxy]phenyl]-sulfonyl]-4-piperidinecarboxamide, Dihydrochloride] | – | – | 1.45 h | – |
| Cl.O=C(NO)C1(S(=O)(=O)c2ccc(Oc3ccc4c(c3)OCCO4)cc2)CCN(C2CC2)CC1 [Example 408, 1-cyclopropyl-4-[[4-[(2,3-dihydro-1,4-benzodioxin-6-yl)oxy]phenyl]-sulfonyl]-N-hydroxy-4-piperidine-carboxamide, Monohydrochloride] | – | – | 3.30 h | – |
| Cl.O=C(NO)C1(S(=O)(=O)c2ccc(Oc3ccc(OC(F)(F)F)cc3)cc2)CCNCC1 [Example 410, N-hydroxy-4-[[4-[(trifluoromethoxy)phenoxy]phenyl]sulfonyl]-4-piperidinecarboxamide, Monohydrochloride] | – | – | 1.78 h | – |
| C#CCN1CCC(C(=O)NO)(S(=O)(=O)c2ccc(Oc3ccc(C(C)C)cc3)cc2)CC1.Cl [Example 414, N-hydroxy-4-[[4-[4-(1-methylethyl)phenoxy]phenyl]sulfonyl]-1-(2-propynyl)-4-piperidinecarboxamide, Monohdyrochloride] | – | – | 0.73 h | – |
| COCCN1CCC(C(=O)NO)(S(=O)(=O)c2ccc(Oc3ccc(OC(F)(F)F)cc3)cc2)CC1.Cl [Example 416, N-hydroxy-1-(2-methoxyethyl)-4-[[4-[4-(trifluoromethoxy)phenoxy]phenyl]sulfonyl}-4-piperidinecarboxamide, Monohydrochloride] | – | – | 2.94 h | – |
| COCCN1CCC(C(=O)NO)(S(=O)(=O)c2ccc(Oc3ccc(C(F)(F)F)cc3)cc2)CC1.Cl [Example 418, N-hydroxy-1-(2-methoxyethyl)-4-[[4-[4-(trifluoromethyl)-phenoxy]phenyl]sulfonyl}-4-piperidinecarboxamide, Monohydrochloride] | – | – | 2.42 h | – |
| Cl.O=C(NO)C1(S(=O)(=O)c2ccc(Oc3ccc(C(F)(F)F)cc3)cc2)CCN(C2CC2)CC1 [Example 427, 1-cyclopropyl-N-hydroxy-4-[[4-[4-(trifluoromethyl)phenoxy]phenyl]sulfonyl]-4-piperidinecarboxamide, Monohydrochloride] | – | – | 2.85 h | – |
| CCN1CCC(C(=O)NO)(S(=O)(=O)c2ccc(OCc3ccc(C(F)(F)F)cc3)cc2)CC1.Cl [Example 438, 1-ethyl-N-hydroxy-4-[[4-[[4-[trifluoromethyl)phenyl]methoxy]-phenyl]sulfonyl]-4-piperidine-carboxamide, Monohydrochloride] | – | – | 2.14 h | – |
